Measured values taken from patent US6355428B1, “Nucleic acid ligand interaction assays” (Genelabs Technologies, Inc., priority 1998, dated 2002).

What was measured:
[1] = tested on: CCGCGCC (GC-rich) DNA duplex (SEQ ID NO: 6); experiment: SPA (scintillation proximity) direct binding assay, G/C-rich indicator duplex
Source text: (§1) This technology can be applied to studies of ligand binding as disclosed herein. Example 13, below, describes the use of the assay in a high throughput screening method, using the SPA detection system. In this example, the first oligonucleotide is labeled with biotin, and is then tightly bound to streptavidin-coated SPA beads via the strong biotin/streptavidin interaction. These beads are impregnated with scintillant. The second oligonucleotide is labeled with a weak β-emitter, such as ^3H or ^33P. The radioactive second oligonucleotide is mixed with a solution of the beads under conditions at which the first and second oligonucleotides exist primarily as single strands, as described above. The signal will thus be low, as the oligonucleotides are non-hybridized. When ligand is added, the duplex form is stabilized, and the increased proximity of the radioactive isotope (e.g., ^3H, ^33P) in the second oligonucleotide causes the bead to which the first oligonucleotide is bound to scintillate. A signal thus indicates the presence of an effective binding ligand molecule; test sequences giving higher signals indicate the relative preference for different sequences.
The data in Table II compare raw signal counts from SPA assays using three different oligonucleotides and three concentrations (0, 100, and 500 nM) of the DNA binding drug distamycin. The oligonucleotides used were G/C-rich (CCGCGCC; SEQ ID NO: 6), A/T-rich (CTTTATTATTTT; SEQ ID NO: 2), or mixed sequence (GCGGTATTT; SEQ ID NO: 12) DNA duplexes. One strand of the duplex was synthesized with a 5′-biotin label, the other strand was labeled with ^33P, as described in Example 13.
Indicator oligonucleotides as shown in Table 1 were used in this assay, as shown in Table II and FIGS. 4A-E. One strand of each duplex was labeled with biotin at the 5′-end, and the complementary strand was 3′-labeled with ^33P. […] In the absence of ligand, and under these conditions, the oligonucleotides exist in single-stranded conformation. As a result, the oligonucleotide containing the radioactive label is not in close proximity to the SPA bead, and the light given off by the beads is low, i.e., at background. As a duplex-stabilizing ligand is added, the radioactive ^33P is brought into close proximity to the SPA bead, and the light emitted from the SPA bead increases. Accordingly, each of five known DNA-binding compounds was added in increasing concentrations, and the effect on scintillation count was observed, giving the results shown in FIGS. 4A-E.

[2] = tested on: A/T rich, G/C rich and mixed sequence DNA oligonucleotides; experiment: SPA direct binding assay, sequence preference over panel of indicator oligonucleotides
Source text: as §1, with “Example 13, below, describes the use of the assay in a high throughput screening method, using the SPA detection system. In this example, the first oligonucleotide is labeled with biotin, and is then tightly bound to streptavidin-coated SPA beads via the strong biotin/streptavidin interaction.” left out
Indicator oligonucleotides as shown in Table 1 were used in this assay, as shown in Table II and FIGS. 4A-E. One strand of each duplex was labeled with biotin at the 5′-end, and the complementary strand was 3′-labeled with ^33P. The two complementary strands were incubated with streptavidin-coated SPA beads (Amersham, Arlington Heights, Ill.) at room temperature in a buffer containing 20 mM HEPES, pH 7.5, 0.1 mM EDTA, and 20 mM NaCl. In the absence of ligand, and under these conditions, the oligonucleotides exist in single-stranded conformation. As a result, the oligonucleotide containing the radioactive label is not in close proximity to the SPA bead, and the light given off by the beads is low, i.e., at background. As a duplex-stabilizing ligand is added, the radioactive ^33P is brought into close proximity to the SPA bead, and the light emitted from the SPA bead increases.

[3] = tested on: 5′-GCGGTATTT-3′ (SEQ ID NO: 12) F/Q indicator pair; experiment: Fluorescence quenching direct binding assay, mixed DNA; conditions: increasing netropsin; tRNA added; room temperature
Description: The specific examples described in this section employ fluorescence quenching as the detection system. In these examples, because conditions are adjusted to maintain the oligonucleotides in single-stranded form in the absence of the ligand, the assay starts with the system at a high or maximum level of fluorescence, and fluorescence generally decreases, depending on binding affinity, as the ligand is added.
In the Figure legends, RNA oligonucleotides are denoted by an “r” at the beginning of the sequence, and single stranded controls by “ss” at the end of the sequence. These single stranded sequence, are used alone in control experiments, which thus employ only an “F” strand and no complementary quenching strand. Any quenching of fluorescence that is not due to hybridization can thus be acounted for. Maximum quenching expected on complete hybridization of these oligonucleotides is 85-90%; therefore some signal remains after complete hybridization. […]
According to the general method described above, increasing amounts of netropsin or actinomycin, respectively, were added to mixtures of selected F/Q indicator oligonucleotide pairs, whose sequences are shown in the legends of FIGS. 1 and 3. […] The Figures show the level of fluorescence observed, relative to a control having no added drug, for each indicator pair (or single strand) as the level of added drug was increased. […]

SMILES | CPM ([1]; 100 nM Distamycin, 10 mM Na+) | CPM ([1]; 100 nM Distamycin, 50 mM Na+) | CPM ([1]; 500 nM Distamycin, 10 mM Na+) | CPM ([1]; 500 nM Distamycin, 50 mM Na+) | sequence preference of binding (FIGS. 4A-E) ([2]; A/T rich 5′-AAAATAATAAAG, G/C rich 5′-GGCGCGG, mixed 5′-GTTGCAGATC, increasing drug) | duplex stabilization preference (Table II) ([2]; G/C-rich SEQ 6, A/T-rich SEQ 2, mixed SEQ 12 duplexes, 0, 100, 500 nM drug) | binding (decrease in fluorescence, FIG. 3A) [3]
Cn1cc(NC(=O)c2cc(NC(=O)c3cc(NC=O)cn3C)cn2C)cc1C(=O)NCCC(=N)N [Distamycin, distamycin] | 699 CPM | 889 CPM | 744 CPM | 666 CPM | preference for A/T-rich and mixed sequences | preferentially stabilizes the A/T-rich duplex and the mixed duplex | 
Cn1cc(NC(=O)c2cc(NC(=O)CN=C(N)N)cn2C)cc1C(=O)NCCC(=N)N [Netropsin, netropsin] |  |  |  |  |  |  | binds well
